Laboratory results taken from patent US20260022142A1, “MACROCYCLIC IMMUNOMODULATORS” (Bristol-Myers Squibb Company, priority 2022, published 2026).
Bridge positions count the residues as written; N and C are the ends. Square brackets hold non-standard residues; d marks the D form. Peptide text beside a SMILES is read from it. * marks the point of attachment. ξ: configuration not given here. Phe(4-COOH) = N[C@@H](Cc1ccc(C(=O)O)cc1)C(=O)O; Bip = N[C@@H](Cc1ccc(-c2ccccc2)cc1)C(=O)O; NH(CH2)14COOH = O=C(O)CCCCCCCCCCCCCCN*; Phe(3-Me) = Cc1cccc(C[C@H](N)C(=O)O)c1; Bta = N[C@@H](Cc1csc2ccccc12)C(=O)O; Val(3-OH) = CC(C)(O)[C@H](N)C(=O)O; hArg = N=C(N)NCCCC[C@H](N)C(=O)O; 4Pal = N[C@@H](Cc1ccncc1)C(=O)O; 3Thi = N[C@@H](Cc1ccsc1)C(=O)O; Cha = N[C@@H](CC1CCCCC1)C(=O)O; Cit = NC(=O)NCCC[C@H](N)C(=O)O; Thr(3ξ) = CC(O)[C@H](N)C(=O)O; Carboxymethyl = O=C(O)C*; Nle = CCCC[C@H](N)C(=O)O; Orn = NCCC[C@H](N)C(=O)O; Aun = NCCCCCCCCCCC(=O)O; Dab = NCC[C@H](N)C(=O)O; Dap = NC[C@H](N)C(=O)O; AEEA = NCCOCCOCC(=O)O

Molecular target: T1, PD-1/PD-L1 interaction (PE-labeled human PD-L1-Ig binding to Jurkat cell line over-expressing human PD-1) (Homo sapiens, UniProt Q15116)
T1 construct: expressed in transfected cells; host or cells: Jurkat
T1 sequence (Q15116 25-288): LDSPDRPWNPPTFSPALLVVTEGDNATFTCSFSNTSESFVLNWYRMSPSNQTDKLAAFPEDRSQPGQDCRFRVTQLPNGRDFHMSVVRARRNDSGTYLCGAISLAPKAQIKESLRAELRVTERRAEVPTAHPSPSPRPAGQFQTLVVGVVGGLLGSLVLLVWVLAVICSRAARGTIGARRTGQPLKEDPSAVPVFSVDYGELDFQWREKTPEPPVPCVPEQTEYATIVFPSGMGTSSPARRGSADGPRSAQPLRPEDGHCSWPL
Test: Jurkat-PD-1 Cell Binding High-Content Screening Assay (CBA)
Type: cell-based
Settings: Jurkat cell line over-expressing human PD-1; PE-labeled PD-L1-Ig 20 nM final; read-out: Jurkat hPD1-PDL1 IC50
How it was run: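 First, compound is added to PD-1-expressing Jurkat cells in serum-containing DMEM and left 2 h at 37° C. Next, PE-conjugated PD-L1-Ig is introduced at 20 nM final concentration for 1 hour. Finally, cells are fixed in 4% paraformaldehyde with Hoechst 33342, washed and imaged.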

IC50 [nM] | SMILES
13.7 | CC(C)C[C@H]1NC(=O)[C@H](CCCN)NC(=O)[C@H](C(C)C)NC(=O)[C@H](Cc2ccc(-c3ccccc3)cc2)NC(=O)[C@H](C(C)C)NC(=O)[C@H](Cc2c[nH]c3ccccc23)NC(=O)[C@H](CC(=O)O)NC(=O)[C@H](Cc2ccc(OCC(=O)O)cc2)NC(=O)[C@H](CCCNC(=N)N)NC(=O)CSC[C@@H](C(=O)N[C@@H](CCN)C(=O)NCCCCCCCCCCC(=O)O)NC(=O)[C@H](CCN)NC(=O)[C@H](C(C)C)NC(=O)[C@H](CC2CCCCC2)NC(=O)[C@H](CCN)NC1=O [Compound 3288] ({CH2CO}-RY(Carboxymethyl)DWV[Bip]V[Orn][dL][Dab][Cha]V[Dab]C[Dab][Aun]-OH; thioether N-14)
30.6 | Cc1cccc(C[C@@H]2NC(=O)[C@H](CC(=O)O)NC(=O)[C@H](Cc3ccc(OCC(=O)O)cc3)NC(=O)[C@H](C(C)O)NC(=O)CSC[C@@H](C(=O)N[C@@H](CCN)C(=O)NCCCCCCCCCCC(=O)O)NC(=O)[C@H](C(C)O)NC(=O)[C@H](C(C)C)NC(=O)[C@H](CC3CCCCC3)NC(=O)[C@H](CCN)NC(=O)[C@@H](CC(C)C)NC(=O)[C@H](CCCNC(N)=O)NC(=O)[C@H](Cc3ccc(OCC(=O)O)cc3)NC(=O)[C@H](Cc3ccc(-c4ccccc4)cc3)NC(=O)[C@H](Cc3ccc(OCC(=O)O)cc3)NC2=O)c1 (stereo partly drawn) [Compound 3487] ({CH2CO}-[Thr(3ξ)]Y(Carboxymethyl)D[Phe(3-Me)]Y(Carboxymethyl)[Bip]Y(Carboxymethyl)[Cit][dL][Dab][Cha]V[Thr(3ξ)]C[Dab][Aun]-OH; thioether N-14)
6.7 | Cc1cccc(C[C@@H]2NC(=O)[C@H](CC(=O)O)NC(=O)[C@H](Cc3ccc(OCC(=O)O)cc3)NC(=O)[C@H](C(C)O)NC(=O)CSC[C@@H](C(=O)N[C@@H](CCN)C(=O)NCCCCCCCCCCC(=O)O)NC(=O)[C@H](C(C)O)NC(=O)[C@H](C(C)C)NC(=O)[C@H](CC3CCCCC3)NC(=O)[C@H](CCN)NC(=O)[C@@H](CC(C)C)NC(=O)[C@H](CCCN)NC(=O)[C@H](Cc3ccc(OCC(=O)O)cc3)NC(=O)[C@H](Cc3ccc(-c4ccccc4)cc3)NC(=O)[C@H](Cc3ccc(C(=O)O)cc3)NC2=O)c1 (stereo partly drawn) [Compound 3484] ({CH2CO}-[Thr(3ξ)]Y(Carboxymethyl)D[Phe(3-Me)][Phe(4-COOH)][Bip]Y(Carboxymethyl)[Orn][dL][Dab][Cha]V[Thr(3ξ)]C[Dab][Aun]-OH; thioether N-14)
63.4 | CC(C)C[C@H]1NC(=O)[C@H](CCCN)NC(=O)[C@H](Cc2ccc(O)cc2)NC(=O)[C@H](Cc2ccc(-c3ccccc3)cc2)NC(=O)[C@H](Cc2ccc(OCC(=O)O)cc2)NC(=O)[C@H](Cc2csc3ccccc23)NC(=O)[C@H](CC(=O)O)NC(=O)[C@H](Cc2ccc(OCC(=O)O)cc2)NC(=O)[C@H](CN)NC(=O)CSC[C@@H](C(=O)N[C@@H](CCN)C(=O)NCCOCCOCC(=O)NCCCCCCCCCCC(=O)O)NC(=O)[C@H](CCCN)NC(=O)[C@H](C(C)C)NC(=O)[C@H](CC2CCCCC2)NC(=O)[C@H](CCN)NC1=O [Compound 1309] ({CH2CO}-[Dap]Y(Carboxymethyl)D[Bta]Y(Carboxymethyl)[Bip]Y[Orn][dL][Dab][Cha]V[Orn]C[Dab][AEEA][Aun]-OH; thioether N-14)
10.8 | Cc1cccc(C[C@@H]2NC(=O)[C@H](CC(=O)O)NC(=O)[C@H](Cc3ccc(OCC(=O)O)cc3)NC(=O)[C@H](CN)NC(=O)CSC[C@@H](C(=O)N[C@@H](CCCCN)C(=O)NCCOCCOCC(=O)NCCCCCCCCCCC(=O)O)NC(=O)[C@H](CN)NC(=O)[C@H](C(C)C)NC(=O)[C@H](CC3CCCCC3)NC(=O)[C@H](CCN)NC(=O)[C@@H](CC(C)C)NC(=O)[C@H](CCCN)NC(=O)[C@H](CCC(=O)O)NC(=O)[C@H](Cc3ccc(-c4ccccc4)cc3)NC(=O)[C@H](C(C)C)NC2=O)c1 [Compound 2668] ({CH2CO}-[Dap]Y(Carboxymethyl)D[Phe(3-Me)]V[Bip]E[Orn][dL][Dab][Cha]V[Dap]CK[AEEA][Aun]-OH; thioether N-14)
603 | CC(C)C[C@H]1NC(=O)[C@H](CCCNC(N)=O)NC(=O)[C@H](C(C)C)NC(=O)[C@H](Cc2ccc(-c3ccccc3)cc2)NC(=O)[C@H](C(C)C)NC(=O)[C@H](Cc2c[nH]c3ccccc23)NC(=O)[C@H](CC(=O)O)NC(=O)[C@H](Cc2ccc(OCC(=O)O)cc2)NC(=O)[C@H](Cc2ccsc2)NC(=O)CSC[C@@H](C(=O)NCCOCCOCC(=O)N[C@@H](CCCN)C(=O)NCCCCCCCCCCC(=O)O)NC(=O)[C@H](C(C)O)NC(=O)[C@H](C(C)C)NC(=O)[C@H](CC2CCCCC2)NC(=O)[C@H](CCN)NC1=O (stereo partly drawn) [Compound 3208] ({CH2CO}-[3Thi]Y(Carboxymethyl)DWV[Bip]V[Cit][dL][Dab][Cha]V[Thr(3ξ)]C[AEEA][Orn][Aun]-OH; thioether N-14)
23.3 | Cc1cccc(C[C@@H]2NC(=O)[C@H](CC(=O)O)NC(=O)[C@H](Cc3ccc(OCC(=O)O)cc3)NC(=O)[C@H](CCCNC(=N)N)NC(=O)CSC[C@@H](C(=O)N[C@@H](CCN)C(=O)NCCCCCCCCCCC(=O)O)NC(=O)[C@H](CCC(=O)O)NC(=O)[C@H](C(C)C)NC(=O)[C@H](CC3CCCCC3)NC(=O)[C@H](CCN)NC(=O)[C@@H](CC(C)C)NC(=O)[C@H](CCN)NC(=O)[C@H](Cc3ccc(O)cc3)NC(=O)[C@H](Cc3ccc(-c4ccccc4)cc3)NC(=O)[C@H](C(C)C)NC2=O)c1 [Compound 2818] ({CH2CO}-RY(Carboxymethyl)D[Phe(3-Me)]V[Bip]Y[Dab][dL][Dab][Cha]VEC[Dab][Aun]-OH; thioether N-14)
184 | CC(C)C[C@@H]1NC(=O)[C@H](Cc2c[nH]c3ccccc23)NC(=O)[C@H](CC(=O)O)NC(=O)[C@H](Cc2ccc(C(=O)O)cc2)NC(=O)[C@H](C(C)O)NC(=O)CSC[C@@H](C(=O)N[C@@H](CC(N)=O)C(=O)N[C@@H](CCN)C(=O)NCCCCCCCCCCCCCCC(=O)O)NC(=O)[C@H](CO)NC(=O)[C@H](C(C)C)NC(=O)[C@H](CC2CCCCC2)NC(=O)[C@H](CCN)NC(=O)[C@@H](CC(C)C)NC(=O)[C@H](CCCN)NC(=O)[C@H](C(C)C)NC(=O)[C@H](Cc2ccc(-c3ccccc3)cc2)NC1=O (stereo partly drawn) [Compound 3023] ({CH2CO}-[Thr(3ξ)][Phe(4-COOH)]DWL[Bip]V[Orn][dL][Dab][Cha]VSCN[Dab]-{NH(CH2)14COOH}; thioether N-14)
7.6 | Cc1cccc(C[C@@H]2NC(=O)[C@H](CC(=O)O)NC(=O)[C@H](Cc3ccc(OCC(=O)O)cc3)NC(=O)[C@H](CN)NC(=O)CSC[C@@H](C(=O)N[C@@H](CCC(=O)O)C(=O)NCCOCCOCC(=O)NCCCCCCCCCCC(=O)O)NC(=O)[C@H]([C@@H](C)O)NC(=O)[C@H](C(C)C)NC(=O)[C@H](CC3CCCCC3)NC(=O)[C@H](CCN)NC(=O)[C@@H](CC(C)C)NC(=O)[C@H](CCCN)NC(=O)[C@H](CCCNC(N)=O)NC(=O)[C@H](Cc3ccc(-c4ccccc4)cc3)NC(=O)[C@H](C(C)C)NC2=O)c1 [Compound 1037] ({CH2CO}-[Dap]Y(Carboxymethyl)D[Phe(3-Me)]V[Bip][Cit][Orn][dL][Dab][Cha]VTCE[AEEA][Aun]-OH; thioether N-14)
11.8 | Cc1cccc(C[C@@H]2NC(=O)[C@H](CC(=O)O)NC(=O)[C@H](Cc3ccc(C(=O)O)cc3)NC(=O)[C@H](CCCNC(=N)N)NC(=O)CSC[C@@H](C(=O)N[C@@H](CCN)C(=O)NCCCCCCCCCCC(=O)O)NC(=O)[C@H]([C@@H](C)O)NC(=O)[C@H](C(C)C)NC(=O)[C@H](CC3CCCCC3)NC(=O)[C@H](CCN)NC(=O)[C@@H](CC(C)C)NC(=O)[C@H](CCCN)NC(=O)[C@H](Cc3ccc(OCC(=O)O)cc3)NC(=O)[C@H](Cc3ccc(-c4ccccc4)cc3)NC(=O)[C@H](Cc3ccc(OCC(=O)O)cc3)NC2=O)c1 [Compound 2166] ({CH2CO}-R[Phe(4-COOH)]D[Phe(3-Me)]Y(Carboxymethyl)[Bip]Y(Carboxymethyl)[Orn][dL][Dab][Cha]VTC[Dab][Aun]-OH; thioether N-14)
11.6 | CC(C)C[C@H]1NC(=O)[C@H](CCCN)NC(=O)[C@H](C(C)C)NC(=O)[C@H](Cc2ccc(-c3ccccc3)cc2)NC(=O)[C@H](C(C)C)NC(=O)[C@H](Cc2c[nH]c3ccccc23)NC(=O)[C@H](CC(=O)O)NC(=O)[C@H](Cc2ccc(OCC(=O)O)cc2)NC(=O)[C@H](CCCCNC(=N)N)NC(=O)CSC[C@@H](C(=O)NCC(=O)NCCOCCOCC(=O)N[C@@H](CCCN)C(=O)NCCCCCCCCCCC(=O)O)NC(=O)[C@H](CN)NC(=O)[C@H](C(C)C)NC(=O)[C@H](CC2CCCCC2)NC(=O)[C@H](CCN)NC1=O [Compound 3196] ({CH2CO}-[hArg]Y(Carboxymethyl)DWV[Bip]V[Orn][dL][Dab][Cha]V[Dap]CG[AEEA][Orn][Aun]-OH; thioether N-14)
26.7 | CC(C)C[C@H]1NC(=O)[C@H](CCCN)NC(=O)[C@H](Cc2ccc(O)cc2)NC(=O)[C@H](Cc2ccc(-c3ccccc3)cc2)NC(=O)[C@H](C(C)C)NC(=O)[C@H](Cc2c[nH]c3ccccc23)NC(=O)[C@H](CC(=O)O)NC(=O)[C@H](Cc2ccc(O)cc2)NC(=O)[C@H](Cc2ccncc2)NC(=O)CSC[C@@H](C(=O)N[C@@H](CCN)C(=O)NCCCCCCCCCCC(=O)O)NC(=O)[C@H](CCCN)NC(=O)[C@H](C(C)C)NC(=O)[C@H](CC2CCCCC2)NC(=O)[C@H](CCN)NC1=O [Compound 2704] ({CH2CO}-[4Pal]YDWV[Bip]Y[Orn][dL][Dab][Cha]V[Orn]C[Dab][Aun]-OH; thioether N-14)
106 | CCCC[C@@H]1NC(=O)CSC[C@@H](C(=O)N[C@@H](CCN)C(=O)NCCOCCOCC(=O)N[C@@H](CO)C(=O)N[C@H](CCC(=O)NCCCCCCCCCCCCCCC(=O)O)C(=O)O)NC(=O)[C@H](Cc2cnc[nH]2)NC(=O)[C@H](C(C)(C)O)NC(=O)[C@H](CC2CCCCC2)NC(=O)[C@H](CCN)NC(=O)[C@@H](CC(C)C)NC(=O)[C@H](CCCN)NC(=O)[C@H](Cc2ccc(OCC(=O)O)cc2)NC(=O)[C@H](Cc2ccc(-c3ccccc3)cc2)NC(=O)[C@H](Cc2ccc(C(=O)O)cc2)NC(=O)[C@H](Cc2cccc(C)c2)NC(=O)[C@H](CC(=O)O)NC(=O)[C@H](Cc2ccc(OCC(=O)O)cc2)NC1=O [Compound 3894] ({CH2CO}-[Nle]Y(Carboxymethyl)D[Phe(3-Me)][Phe(4-COOH)][Bip]Y(Carboxymethyl)[Orn][dL][Dab][Cha][Val(3-OH)]HC[Dab][AEEA]S[dE](NH(CH2)14COOH)-OH; thioether N-14)
